Data published in patent EP0121972A2, “N-aryl-alpha-amino-carboxamides” (JANSSEN PHARMACEUTICA N.V., priority 1983, dated 1984).
Where a name gives a salt, the structure may show the parent alone.

System: multifocal ventricular arrhythmia
Test: Antiarrhythmic effect in dogs with ventricular arrhythmia after coronary artery ligation
Format: in vivo
Settings: given intravenously; for minimal effective dose: Canis lupus familiaris, iv, lowest effective dose normalizing the cardial rhythm, about 16 hours after ligation of the anterior descendent branch of the left coronary artery, under neuroleptanalgesia, read-out: Antiarrhythmic effects in dogs LED in mg/kg body weight; for Antiarrhythmic effects in dogs duration: duration of action at the lowest effective dose, coronary-ligated dogs
Procedure: The compounds of formula (I) and their pharmaceutically acceptable acid addition salts and possible stereochemically isomeric forms thereof show excellent antiarrhythmic properties and as such they are useful in the normalization of irregular cardial rhythms. The antiarrhythmic effect of the compounds of this invention is clearly illustrated in the following experiment in dogs. The test was carried out under neuroleptanalgesia (1 ml per 10 kg body weight of fentanyl (0.4 mg/ml) and droperidol (20 mg/ml)).
The test compounds were given intravenously after a control period of 30 minutes.

| Compound | minimal effective dose | Antiarrhythmic effects in dogs duration |
| --- | --- | --- |
| CC(=O)N[C@H]1CCC[C@@H]1N1CCC(C(=O)Nc2c(C)cccc2C)(N(C)C)CC1 (relative stereo) [compound 219, trans-l-[2-(acetylamino)cyclopentyl]-4-(dimethylamino)-N-(2,6-dimethylphenyl)-4-piperidinecarboxamide] | 0.08 mg/kg | 285 min |
| Cc1cccc(C)c1NC(=O)C1(N2CCOCC2)CCN([C@@H]2CCCC[C@H]2O)CC1 (relative stereo) [compound 127, trans-N-(2,6-dimethylphenyl)-l-(2-hydroxycyclohexyl)-4-(4-morpholinyl)-4-piperidinecarboxamide] | 0.31 mg/kg | 55 min |
| CCN(CC)C1(C(=O)Nc2cc(Cl)ccc2C)CCN(C(C)C)CC1 [compound 143] | 0.31 mg/kg | 95 min |
| Cc1cccc(C)c1NC(=O)C1(N(C)C)CCN([C@H]2CCC[C@@H]2NCCO)CC1 (relative stereo) [compound 231, trans-4-(dimethylamino)-N-(2,6-dimethylphenyl)-l-[2-[(2-hydroxyethyl)amino]cyclopentyl]-4-piperidinecarboxamide] | 0.16 mg/kg | >230 min |
| CCN(CC)C1(C(=O)Nc2c(C)cccc2C)CCN([C@@H]2CCC[C@H]2O)CC1 (relative stereo) [compound 92] | 0.31 mg/kg | 205 min |
| CCN(C)C1(C(=O)Nc2c(C)cccc2C)CCNCC1 [compound 73, N-(2,6-dimethylphenyl)-4-(ethylmethylamino)-4-piperidine carboxamide] | 0.63 mg/kg | 30 min |
| Cc1cccc(C)c1NC(=O)C1(N(C)C)CCN([C@H]2CCC[C@@H]2N)CC1 (relative stereo) [compound 217, trans-l-(2-aminocyclopentyl)-4-(dimethylamino)-N-(2,6-dimethylphenyl)-4-piperidinecarboxamide] | 0.31 mg/kg | 50 min |
| Cc1cccc(C)c1NC(=O)C1(N(C)C)CCN(CC(O)CN)CC1 (stereo not drawn) [compound 191, 1-(3-amino-2-hydroxypropyl)-4-(dimethylamino)-N-(2,6-dimethylphenyl)-4-piperidinecarboxamide] | 1.25 mg/kg | 20 min |
| Cc1cccc(C)c1NC(=O)C1(N(C)C)CCN([C@H]2CNCC[C@@H]2O)CC1 (relative stereo) [compound 211, trans-4-(dimethylamino)-N-(2,6-dimethylphenyl)-4'-hydroxy-[l,3'-bipiperidine]-4-carboxamide] | 0.63 mg/kg | 160 min |
| CCN1CCC(C(=O)Nc2c(C)cccc2C)(N(C)C)CC1 [compound 134] | 0.63 mg/kg | 100 min |
| CCN(C)C1(C(=O)Nc2c(C)cccc2C)CCN(C(C)C)CC1 [compound 138] | 1.25 mg/kg | 100 min |
| CCOC(=O)N1CCC(N2CCC(C(=O)Nc3c(C)cccc3C)(N(C)C)CC2)C(OC)C1 (stereo not drawn) [compound 144] | 0.16 mg/kg | 40 min |
| CCCN1CCC(C(=O)Nc2c(C)cccc2C)(N(C)C)CC1 [compound 136] | 0.16 mg/kg | 15 min |
| Cc1cccc(C)c1NC(=O)C1(N(C)C)CCN(C2CCNCC2)CC1 [compound 86, 4-(dimethylamino)-N-(2,6-dimethylphenyl)-[1,4'-bipiperidine]-4-carboxamide] | 0.16 mg/kg | 185 min |
| CCN(CC)C1(C(=O)Nc2c(C)cccc2C)CCN([C@@H]2CCCC[C@H]2O)CC1 (relative stereo) [compound 93] | 0.63 mg/kg | 30 min |
| COC1CNCCC1N1CCC(C(=O)Nc2c(C)cccc2C)(N(C)C)CC1 (stereo not drawn) [compound 85, cis-4-(dimethylamino)-N-(2,6-dimethylphenyl)-3'-methoxy-[l,4'-bipiperidine]-4-carboxamide] | 0.63 mg/kg | 65 min |
| Cc1cccc(C)c1NC(=O)C1(N(C)C)CCN([C@H]2CC[C@@H](O)C[C@@H]2O)CC1 [compound 202, (+)-[1-(1α,2β,4α)]-1-(2,4-dihydroxycyclohexyl)-4-(dimethylamino)-N-(2,6-dimethylphenyl)-4-piperidinecarboxamide] | 0.31 mg/kg | 5 min |
| CCNC1(C(=O)Nc2c(C)cccc2C)CCN(C(C)C)CC1 [compound 189, N-(2,6-dimethylphenyl)-4-(ethylamino)-l-(l-methylethyl)-4-piperidinecarboxamide] | 0.63 mg/kg | 175 min |
| Cc1cccc(C)c1NC(=O)C1(N(C)C)CCN(C(C)C)CC1 [compound 132] | 0.16 mg/kg | 140 min |
| Cc1cccc(C)c1NC(=O)C1(N(C)C)CCN([C@@H]2CCC[C@H]2N(CCO)Cc2ccccc2)CC1 (relative stereo) [compound 225, trans-4-(dimethyl-amino)-N-(2,6-dimethylphenyl)-1-[2-[(2-hydroxyethyl)(phenylmethyl)-amino]cyclopentyl]-4-piperidinecarboxamide] | 0.08 mg/kg | 140 min |
| CCCCN1CCC(C(=O)Nc2c(C)cccc2C)(N(C)C)CC1 [compound 137] | 0.16 mg/kg | 145 min |
| Cc1cccc(C)c1NC(=O)C1(N(C)C)CCNCC1 [compound 71, 4-(dimethylamino)-N-(2,6-dimethylphenyl)-4-piperidinecarboxamide] | 1.25 mg/kg | 240 min |
| C=CCN1CCC(C(=O)Nc2c(C)cccc2C)(N(C)C)CC1 [compound 162, 4-(dimethylamino)-N-(2,6-dimethylphenyl)-l-(2-propenyl)-4-piperidinecarboxamide] | 0.31 mg/kg | 25 min |
| CCN(CC)C1(C(=O)Nc2c(C)cccc2C)CCN(C2CCCCC2)CC1 [compound 141] | 0.16 mg/kg | 40 min |
| Cc1cccc(C)c1NC(=O)C1(N(C)C)CCN([C@H]2CCCC[C@@H]2NC(N)=O)CC1 (relative stereo) [compound 224, trans-1-[2-[(aminocarbonyl)-amino]cyclohexyl]-4-(dimethyJamino)-N-(2,6-dimethylphenyl)-4-piperidinecarboxamide] | 0.04 mg/kg | 130 min |
| CCN(CC)CCCC(C)N1CCC(C(=O)Nc2c(C)cccc2C)(N(C)C)CC1 (stereo not drawn) [compound 146] | 1.25 mg/kg | 45 min |
| Cc1cccc(C)c1NC(=O)C1(N(C)C)CCN(CC(O)CO)CC1 (stereo not drawn) [compound 97] | 0.31 mg/kg | 60 min |
| CCN(CC)C1(C(=O)Nc2cc(Cl)ccc2C)CCN(C2CCCC2)CC1 [compound 166, N-(5-chloro-2-methylphenyl)-l-cyclopentyl-4-(diethylamino)-4-piperidinecarboxamide dihydrochloride hemihydrate] | 0.63 mg/kg | 200 min |
| CCN(CC)C1(C(=O)Nc2c(C)cccc2C)CCN(C2CCCC2)CC1 [compound 54, 1-cyclopentyl-4-(diethylamino)-N-(2,6-dimethylphenyl)-4-piperidinecarboxamide] | 0.16 mg/kg | 240 min |
| CCN(CC)C1(C(=O)Nc2c(C)cccc2C)CCN(C(C)C)CC1 [compound 53, 4-(diethylamino)-N-(2,6-dimethylphenyl)-1-(1-methylethyl)-4-piperidinecarboxamide] | 0.63 mg/kg | 140 min |
